In patent publication US8067589B2, “Heterocyclic compounds useful in treating diseases and conditions” (Pfizer Inc, priority 2007, dated 2011):

What follows are compounds tested against human recombinant H-PGDS (Homo sapiens, UniProt O60760) (assay: Fluoresecence Intensity h-PGDSTBA Enzyme Assay). Conditions: IC50, 5.0 μM PGH2, 2.5 mM L-Glutathione, 10 min preincubation, 4-parameter fit, highest inhibitor concentration typically 1 μM.
human recombinant H-PGDS, sequence (O60760 whole entry): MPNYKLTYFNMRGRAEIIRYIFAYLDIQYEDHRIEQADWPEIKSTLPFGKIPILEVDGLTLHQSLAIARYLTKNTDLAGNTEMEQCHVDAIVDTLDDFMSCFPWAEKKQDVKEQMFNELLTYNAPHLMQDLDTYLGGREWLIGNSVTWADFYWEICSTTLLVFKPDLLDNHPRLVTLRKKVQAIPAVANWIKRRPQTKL

SMILES | IC50 [nM]
Cc1cc(F)ccc1OCC(c1ccccc1)N1CCC(NC(=O)c2cnc(-c3cccc(F)c3)nc2)CC1 (stereo not shown) [Example 57, N-{1-[2-(4-Fluoro-2-methylphenoxy)-1-phenylethyl]piperidin-4-yl}-2-(3-fluorophenyl)pyrimidine-5-carboxamide] | 11.4
COc1ccc(OCC(c2ccccc2)N2CCC(NC(=O)c3cnc(-c4cccc(F)c4)nc3)CC2)cc1 (stereo not shown) [Example 58, 2-(3-Fluorophenyl)-N-{1-[2-(4-methoxyphenoxy)-1-phenylethyl]piperidin-4-yl}pyrimidine-5-carboxamide] | 2.08
Cc1nc(N2CCC(NC(=O)c3cnc(-c4cccc(F)c4)nc3)CC2)[nH]c(=O)c1CCO [Example 60, 2-(3-Fluorophenyl)-N-{1-[5-(2-hydroxyethyl)-4-methyl-6-oxo-1,6-dihydropyrimidin-2-yl]piperidin-4-yl}pyrimidine-5-carboxamide] | 1.02
CCCCN1CCC(NC(=O)c2cnc(-c3cccc(F)c3)nc2)CC1 [Example 61, N-(1-Butylpiperidin-4-yl)-2-(3-fluorophenyl)pyrimidine-5-carboxamide] | 0.58
O=C(NC1CCN(Cc2ccc(F)cc2)CC1)c1cnc(-c2cccc(F)c2)nc1 [Example 63, N-[1-(4-Fluorobenzyl)piperidin-4-yl]-2-(3-fluorophenyl)pyrimidine-5-carboxamide] | 0.509
O=C(NC1CCN(Cc2ccccc2F)CC1)c1cnc(-c2cccc(F)c2)nc1 [Example 64, N-[1-(2-Fluorobenzyl)piperidin-4-yl]-2-(3-fluorophenyl)pyrimidine-5-carboxamide] | 0.16
O=C(NC1CCN(Cc2cccc(F)c2)CC1)c1cnc(-c2cccc(F)c2)nc1 [Example 65, N-[1-(3-Fluorobenzyl)piperidin-4-yl]-2-(3-fluorophenyl)pyrimidine-5-carboxamide] | 0.335
O=C(NC1CCN(Cc2ccc(C(F)(F)F)cc2)CC1)c1cnc(-c2cccc(F)c2)nc1 [Example 67, 2-(3-Fluorophenyl)-N-{1-[4-(trifluoromethyl)benzyl]piperidin-4-yl}pyrimidine-5-carboxamide] | 30
Cc1cc(=O)[nH]c(N2CCC(NC(=O)c3cnc(-c4cccc(F)c4)nc3)CC2)n1 [Example 70, 2-(3-Fluorophenyl)-N-[1-(4-methyl-6-oxo-1,6-dihydropyrimidin-2-yl)piperidin-4-yl]pyrimidine-5-carboxamide] | 0.962
CC(C)(C)OC(=O)N1C[C@@H]2[C@H](C1)[C@H]2NC(=O)c1cnc(-c2cccc(F)c2)nc1 [Example 71, tert-Butyl (1R,5S,6s)-6-({[2-(3-fluorophenyl)pyrimidin-5-yl]carbonyl}amino)-3-azabicyclo[3.1.0]hexane-3-carboxylate] | 0.355
CN1CC[C@@H](NC(=O)c2cnc(-c3cccc(F)c3)nc2)[C@@H](Cc2ccccc2)C1 [Example 72, N-[(3S,4R)-3-Benzyl-1-methylpiperidin-4-yl]-2-(3-fluorophenyl)pyrimidine-5-carboxamide] | 30
CCOC(=O)N1CCC(NC(=O)c2cnc(-c3cc(F)ccc3F)nc2)CC1 [Example 74, Ethyl 4-({[2-(2,5-difluorophenyl)pyrimidin-5-yl]carbonyl}amino)piperidine-1-carboxylate] | 3.2
O=C(NC1CCN(c2ncc3c(n2)CCOC3)CC1)c1cnc(-c2cccc(F)c2)nc1 [Example 76, N-[1-(7,8-Dihydro-5H-pyrano[4,3-d]pyrimidin-2-yl)piperidin-4-yl]-2-(3-fluorophenyl)pyrimidine-5-carboxamide] | 0.595
CN1CCc2nc(N3CCC(NC(=O)c4cnc(-c5cccc(F)c5)nc4)C3)ncc2C1 (stereo not shown) [Example 78, 2-(3-Fluorophenyl)-N-[1-(6-methyl-5,6,7,8-tetrahydropyrido[4,3-d]pyrimidin-2-yl)pyrrolidin-3-yl]pyrimidine-5-carboxamide] | 0.379
O=C(N[C@@H]1CCN(Cc2ccccc2)C1)c1cnc(-c2cccc(F)c2)nc1 [Example 79, N-[(3R)-1-Benzylpyrrolidin-3-yl]-2-(3-fluorophenyl)pyrimidine-5-carboxamide] | 0.346
O=C(NC1CCN(c2ncc3c(n2)CCOC3)C1)c1cnc(-c2cccc(F)c2)nc1 (stereo not shown) [Example 81, N-[1-(7,8-Dihydro-5H-pyrano[4,3-d]pyrimidin-2-yl)pyrrolidin-3-yl]-2-(3-fluorophenyl)pyrimidine-5-carboxamide] | 0.219
CCOC(=O)N1CCC(NC(=O)c2cnc(-c3cccc(F)c3)nc2)C1 (stereo not shown) [Example 82, Ethyl 3-({[2-(3-fluorophenyl)pyrimidin-5-yl]carbonyl}amino)pyrrolidine-1-carboxylate] | 0.658
O=C(NC1CCN(Cc2cccc(Cl)c2)C1=O)c1cnc(-c2cccc(F)c2)nc1 (stereo not shown) [Example 83, N-[1-(3-Chlorobenzyl)-2-oxopyrrolidin-3-yl]-2-(3-fluorophenyl)pyrimidine-5-carboxamide] | 1.18
CC(C)N1CCC(NC(=O)c2cnc(-c3cccc(F)c3)nc2)C1 (stereo not shown) [Example 87, 2-(3-Fluorophenyl)-N-(1-isopropylpyrrolidin-3-yl)pyrimidine-5-carboxamide] | 6.57
O=C(NC1CCN(c2ncc3c(n2)CCC3)C1)c1cnc(-c2cccc(F)c2)nc1 (stereo not shown) [Example 89, N-[1-(6,7-Dihydro-5H-cyclopenta[d]pyrimidin-2-yl)pyrrolidin-3-yl]-2-(3-fluorophenyl)pyrimidine-5-carboxamide] | 0.147
O=C(NC1CCN(C2Cc3ccccc3C2)C1=O)c1cnc(-c2cccc(F)c2)nc1 (stereo not shown) [Example 90, N-[1-(2,3-Dihydro-1H-inden-2-yl)-2-oxopyrrolidin-3-yl]-2-(3-fluorophenyl)pyrimidine-5-carboxamide] | 0.808
CCCCOCCCN1CCC(NC(=O)c2cnc(-c3cccc(F)c3)nc2)C1=O (stereo not shown) [Example 91, N-[1-(3-Butoxypropyl)-2-oxopyrrolidin-3-yl]-2-(3-fluorophenyl)pyrimidine-5-carboxamide] | 2.8

Continued by falling IC50, values first:

IC50 [nM] | SMILES
18.3 | O=C(NC1CCN(c2ccc(C(=O)N3CCOCC3)cn2)CC1)c1cnc(-c2cc(F)ccc2F)nc1 [Example 75, 2-(2,5-Difluorophenyl)-N-{1-[5-(morpholin-4-ylcarbonyl)pyridin-2-yl]piperidin-4-yl}pyrimidine-5-carboxamide]
13 | CN1CCc2nc(N3CC[C@@H](NC(=O)c4cnc(-c5cccc(F)c5)nc4)C3)ncc2C1 [Example 78a, 2-(3-Fluorophenyl)-N-[(3R)-1-(6-methyl-5,6,7,8-tetrahydropyrido[4,3-d]pyrimidin-2-yl)pyrrolidin-3-yl]pyrimidine-5-carboxamide]
8.16 | Cc1ccc(F)c(OCC(c2ccccc2)N2CCC(NC(=O)c3cnc(-c4cccc(F)c4)nc3)CC2)c1 (stereo not shown) [Example 59, N-{1-[2-(2-Fluoro-5-methylphenoxy)-1-phenylethyl]piperidin-4-yl}-2-(3-fluorophenyl)pyrimidine-5-carboxamide]
6.43 | Cc1cc(CN2CCC(NC(=O)c3cnc(-c4cccc(F)c4)nc3)C2=O)ccc1F (stereo not shown) [Example 86, N-[1-(4-Fluoro-3-methylbenzyl)-2-oxopyrrolidin-3-yl]-2-(3-fluorophenyl)pyrimidine-5-carboxamide]
3.59 | CCC(C)N1CCC(NC(=O)c2cnc(-c3cccc(F)c3)nc2)CC1 (stereo not shown) [Example 69, N-(1-sec-Butylpiperidin-4-yl)-2-(3-fluorophenyl)pyrimidine-5-carboxamide]
2.87 | CC(C)(C)OC(=O)N1C[C@H](NC(=O)c2cnc(-c3cccc(F)c3)nc2)[C@@H](F)C1 [Example 92, tert-Butyl (3S,4S)-3-fluoro-4-({[2-(3-fluorophenyl)pyrimidin-5-yl]carbonyl}amino)pyrrolidine-1-carboxylate]
2.34 | O=C(NC1CCN(Cc2c(F)ccc(F)c2Cl)C1=O)c1cnc(-c2cccc(F)c2)nc1 (stereo not shown) [Example 85, N-[1-(2-Chloro-3,6-difluorobenzyl)-2-oxopyrrolidin-3-yl]-2-(3-fluorophenyl)pyrimidine-5-carboxamide]
1.84 | O=C(NC1CCN(CC(F)(F)F)CC1)c1cnc(-c2cc(F)ccc2F)nc1 [Example 73, 2-(2,5-Difluorophenyl)-N-[1-(2,2,2-trifluoroethyl)piperidin-4-yl]pyrimidine-5-carboxamide]
1.58 | CC(=O)N1CC[C@@H](NC(=O)c2cnc(-c3cccc(F)c3)nc2)C1 [Example 88, N-[(3R)-1-Acetylpyrrolidin-3-yl]-2-(3-fluorophenyl)pyrimidine-5-carboxamide]
1 | CN1CCc2nc(N3CC[C@H](NC(=O)c4cnc(-c5cccc(F)c5)nc4)C3)ncc2C1 [Example 78b, 2-(3-Fluorophenyl)-N-[(3S)-1-(6-methyl-5,6,7,8-tetrahydropyrido[4,3-d]pyrimidin-2-yl)pyrrolidin-3-yl]pyrimidine-5-carboxamide]
0.987 | O=C(NC1CCN(Cc2ccccc2C(F)(F)F)C1=O)c1cnc(-c2cccc(F)c2)nc1 (stereo not shown) [Example 84, 2-(3-Fluorophenyl)-N-{2-oxo-1-[2-(trifluoromethyl)benzyl]pyrrolidin-3-yl}pyrimidine-5-carboxamide]
0.489 | Cc1ccccc1CN1CCC(NC(=O)c2cnc(-c3cccc(F)c3)nc2)CC1 [Example 62, 2-(3-Fluorophenyl)-N-[1-(2-methylbenzyl)piperidin-4-yl]pyrimidine-5-carboxamide]
0.373 | CCC(CC)N1CCC(NC(=O)c2cnc(-c3cccc(F)c3)nc2)CC1 [Example 68, N-[1-(1-Ethylpropyl)piperidin-4-yl]-2-(3-fluorophenyl)pyrimidine-5-carboxamide]
0.355 | O=C(NC1CCN(CC2CCCC2)CC1)c1cnc(-c2cccc(F)c2)nc1 [Example 66, N-[1-(Cyclopentylmethyl)piperidin-4-yl]-2-(3-fluorophenyl)pyrimidine-5-carboxamide]
0.211 | Cc1nc(N2CCC(NC(=O)c3cnc(-c4cccc(F)c4)nc3)C2)ncc1S(C)(=O)=O (stereo not shown) [Example 80, 2-(3-Fluorophenyl)-N-{1-[4-methyl-5-(methylsulfonyl)pyrimidin-2-yl]pyrrolidin-3-yl}pyrimidine-5-carboxamide]
